Experimental data taken from ChEMBL document CHEMBL2086344, “Halicloic acids A and B isolated from the marine sponge Haliclona sp. collected in the Philippines inhibit indoleamine 2,3-dioxygenase” (J Nat Prod, 2012).
Active and inactive are the calls of the source. No cut-off for these calls is given here.

molecular target: T1, Indoleamine 2,3-dioxygenase 1 (Homo sapiens, UniProt P14902); experiment: Inhibition of recombinant human IDO expressed in Escherichia coli using L-tryptophan as substrate after 60 mins by spectrophotometry
Target sequence in this assay (P14902 whole entry): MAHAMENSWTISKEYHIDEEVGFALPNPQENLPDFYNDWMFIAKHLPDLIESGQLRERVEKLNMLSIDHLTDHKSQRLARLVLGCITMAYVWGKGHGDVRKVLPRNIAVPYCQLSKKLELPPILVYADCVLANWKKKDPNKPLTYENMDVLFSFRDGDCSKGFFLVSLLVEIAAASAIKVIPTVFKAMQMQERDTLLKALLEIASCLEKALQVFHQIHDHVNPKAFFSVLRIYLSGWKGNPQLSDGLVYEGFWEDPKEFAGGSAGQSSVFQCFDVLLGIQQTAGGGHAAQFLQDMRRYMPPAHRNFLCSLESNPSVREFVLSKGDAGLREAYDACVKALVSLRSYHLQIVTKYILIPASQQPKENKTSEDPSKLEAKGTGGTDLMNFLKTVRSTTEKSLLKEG

Row | Compound | IC50
1 | CC1=CCC[C@@H](C)[C@]1(C)CC[C@@]1(C)[C@@H]2CC[C@]3(C)[C@H](CC[C@]4(C)c5c(C=O)ccc(O)c5C[C@@H]34)[C@@]2(C)CC[C@@H]1O | 29 µM
2 | CC1(C)CCC[C@]2(C)O[C@H]3CC[C@@]4(C)[C@@H](CC[C@]5(C)[C@@H]4CC[C@]4(C)c6c(C=O)ccc(O)c6C[C@@H]54)[C@]3(C)CC[C@@H]12 | 53 µM
3 | CC1(C)CCC[C@]2(C)O[C@H]3CC[C@@]4(C)[C@@H](CC[C@]5(C)[C@@H]4CC[C@]4(C)c6c(C(O)C(=O)O)ccc(O)c6C[C@@H]54)[C@]3(C)CC[C@@H]12 (stereo partly drawn) [HALICLOIC ACID A] | 10 µM
4 | CC1=CCC[C@@H](C)[C@]1(C)CC[C@@]1(C)[C@@H]2CC[C@]3(C)[C@H](CC[C@]4(C)c5c(C(O)C(=O)O)ccc(O)c5C[C@@H]34)[C@@]2(C)CC[C@@H]1O (relative stereo) | 11 µM

molecular target: T1, Indoleamine 2,3-dioxygenase 1; experiment: Inhibition of recombinant human IDO expressed in Escherichia coli using L-tryptophan as substrate at 200 uM after 60 mins by spectrophotometry
Target sequence in this assay (P14902 whole entry, looked up): as the sequence (P14902 whole entry) above

Row | Compound | inhibition
5 | O=Cc1ccccc1 | inactive
6 | O=C(O)C(O)c1ccc(O)cc1 (stereo not drawn) | inactive
7 | O=Cc1ccc(O)cc1 | inactive
8 | O=C(O)C(O)c1ccccc1 (stereo not drawn) | inactive
